Assay: Uptake of colonically absorbable forms of levodopa after intracolonic administration in rats
Assay type: in vivo
Conditions: whole blood, other: intracolonic (directly into the colon via cannula), rat, intraperitoneal carbidopa
Experimental: Sustained release oral dosage forms, which release drug slowly over periods of about 6 to about 24 hours, generally release a significant proportion of the dose within the colon. Thus, drugs suitable for use in such dosage forms should be colonically absorbed.
Rats were obtained commercially and were pre-cannulated in the both the ascending colon and the jugular vein. Animals were conscious at the time of the experiment. […] Carbidopa was administered as a solution in water or citrate buffer either orally, intraperitoneally, or intracolonically at a dose equivalent to 25 mg of carbidopa per kg. […] Blood was then further quenched with methanol/perchloric acid to prevent hydrolysis of the levodopa prodrug. Blood samples were analyzed as described below.
Methanol/perchloric acid (300 μL) was added to blank 1.5 mL Eppendorf tubes. Rat blood (300 μL) was collected into EDTA tubes containing 75 μL of sodium metabisulfite at different times and vortexed to mix. A fixed volume of blood (100 μL) was immediately added into the Eppendorf tube and vortexed to mix. […] Methanol/perchloric acid (300 μL of 50/50) was then added into each tube followed by the addition of 20 μL of p-chlorophenylalanine. The samples were vortexed and centrifuged at 14,000 rpm for 10 min. The supernatant was analyzed by LC/MS/MS. […]

**Q.** With `N[C@@H](Cc1ccc(O)c(O)c1)C(=O)O` [levodopa] as the compound, how does the bioavailability read?
**A.** 3%

Reference: patent US20080070984A1, “Compositions and Methods of Treating Schizophrenia” (priority 2006, published 2008)
